Source: PubChem BioAssay (NCI)
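How tested: cells in 96-well plates exposed to compound for 48 hours at five concentrations. GI50: concentration for 50% inhibition of growth. TGI: total growth inhibition.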

What was measured:
Test in all cases: DTP human tumour cell line panel, 48 h
SN12C renal = tested on: SN12C renal
SF-295 CNS = tested on: SF-295 CNS
EKVX NSCLC = tested on: EKVX NSCLC
BT-549 breast = tested on: BT-549 breast
KM12 colon = tested on: KM12 colon
COLO 205 colon = tested on: COLO 205 colon
SW-620 colon = tested on: SW-620 colon
CAKI-1 renal = tested on: CAKI-1 renal
PC-3 prostate = tested on: PC-3 prostate
HL-60(TB) leukemia = tested on: HL-60(TB) leukemia
SK-OV-3 ovarian = tested on: SK-OV-3 ovarian
SK-MEL-28 melanoma = tested on: SK-MEL-28 melanoma
NCI/ADR-RES ovarian = tested on: NCI/ADR-RES ovarian
A549 NSCLC = tested on: A549 NSCLC
U251 CNS = tested on: U251 CNS
UACC-257 melanoma = tested on: UACC-257 melanoma
NCI-H23 lung = tested on: NCI-H23 lung
SF-539 CNS = tested on: SF-539 CNS
A498 renal = tested on: A498 renal
MOLT-4 leukemia = tested on: MOLT-4 leukemia
DU-145 prostate = tested on: DU-145 prostate
TK-10 renal = tested on: TK-10 renal
HOP-62 NSCLC = tested on: HOP-62 NSCLC
MCF7 breast = tested on: MCF7 breast
NCI-H460 lung = tested on: NCI-H460 lung
SK-MEL-5 melanoma = tested on: SK-MEL-5 melanoma
LOX IMVI melanoma = tested on: LOX IMVI melanoma
HCT-116 colon = tested on: HCT-116 colon
HS 578T breast = tested on: HS 578T breast
MALME-3M melanoma = tested on: MALME-3M melanoma
SR leukemia = tested on: SR leukemia
OVCAR-8 ovarian = tested on: OVCAR-8 ovarian
786-0 renal = tested on: 786-0 renal
RXF 393 renal = tested on: RXF 393 renal
UACC-62 melanoma = tested on: UACC-62 melanoma
HOP-92 NSCLC = tested on: HOP-92 NSCLC
SF-268 CNS = tested on: SF-268 CNS
RPMI-8226 leukemia = tested on: RPMI-8226 leukemia
SNB-75 CNS = tested on: SNB-75 CNS
OVCAR-5 ovarian = tested on: OVCAR-5 ovarian
MDA-MB-435 = tested on: MDA-MB-435
SK-MEL-2 melanoma = tested on: SK-MEL-2 melanoma
HCC-2998 colon = tested on: HCC-2998 colon
K-562 leukemia = tested on: K-562 leukemia
SNB-19 CNS = tested on: SNB-19 CNS
NCI-H522 lung = tested on: NCI-H522 lung
UO-31 renal = tested on: UO-31 renal
NCI-H226 lung = tested on: NCI-H226 lung
HT29 colon = tested on: HT29 colon
T-47D breast = tested on: T-47D breast
OVCAR-3 ovarian = tested on: OVCAR-3 ovarian
OVCAR-4 ovarian = tested on: OVCAR-4 ovarian
HCT-15 colon = tested on: HCT-15 colon
M14 melanoma = tested on: M14 melanoma
IGROV1 ovarian = tested on: IGROV1 ovarian
ACHN renal = tested on: ACHN renal
MDA-MB-231 breast = tested on: MDA-MB-231 breast

SMILES: Cc1cc(I)cc(CN(C)CCCN2CCC(C)CC2)c1O
- GI50 (SN12C renal): 24 µM
- TGI (SN12C renal): 93.4 µM
- GI50 (SF-295 CNS): 14.5 µM
- TGI (SF-295 CNS): 29.3 µM
- GI50 (EKVX NSCLC): 14.2 µM
- TGI (EKVX NSCLC): 31 µM
- GI50 (BT-549 breast): 11.2 µM
- TGI (BT-549 breast): 23.8 µM
- GI50 (KM12 colon): 13.1 µM
- TGI (KM12 colon): 27.9 µM
- GI50 (COLO 205 colon): 13.4 µM
- TGI (COLO 205 colon): 28 µM
- GI50 (SW-620 colon): 13.6 µM
- TGI (SW-620 colon): 26.6 µM
- GI50 (CAKI-1 renal): 13.5 µM
- TGI (CAKI-1 renal): 28.7 µM
- GI50 (PC-3 prostate): 14.1 µM
- TGI (PC-3 prostate): 29.7 µM
- GI50 (HL-60(TB) leukemia): 12.5 µM
- TGI (HL-60(TB) leukemia): 31.6 µM
- GI50 (SK-OV-3 ovarian): 15.9 µM
- TGI (SK-OV-3 ovarian): 31.1 µM
- GI50 (SK-MEL-28 melanoma): 12.1 µM
- TGI (SK-MEL-28 melanoma): 24.5 µM
- GI50 (NCI/ADR-RES ovarian): 14.3 µM
- TGI (NCI/ADR-RES ovarian): 31 µM
- GI50 (A549 NSCLC): 15.4 µM
- TGI (A549 NSCLC): 29.6 µM
- GI50 (U251 CNS): 15.2 µM
- TGI (U251 CNS): 29.8 µM
- GI50 (UACC-257 melanoma): 11.8 µM
- TGI (UACC-257 melanoma): 25.3 µM
- GI50 (NCI-H23 lung): 15.4 µM
- TGI (NCI-H23 lung): 33.7 µM
- GI50 (SF-539 CNS): 14 µM
- TGI (SF-539 CNS): 27.5 µM
- GI50 (A498 renal): 7.53 µM
- TGI (A498 renal): 21.2 µM
- GI50 (MOLT-4 leukemia): 10 µM
- TGI (MOLT-4 leukemia): 26.4 µM
- GI50 (DU-145 prostate): 15.5 µM
- TGI (DU-145 prostate): 28.8 µM
- GI50 (TK-10 renal): 14.7 µM
- TGI (TK-10 renal): 29.2 µM
- GI50 (HOP-62 NSCLC): 14.1 µM
- TGI (HOP-62 NSCLC): 27.2 µM
- GI50 (MCF7 breast): 14.2 µM
- TGI (MCF7 breast): 28.2 µM
- GI50 (NCI-H460 lung): 12.5 µM
- TGI (NCI-H460 lung): 25 µM
- GI50 (SK-MEL-5 melanoma): 4.98 µM
- TGI (SK-MEL-5 melanoma): 17.2 µM
- GI50 (LOX IMVI melanoma): 15.5 µM
- TGI (LOX IMVI melanoma): 31.4 µM
- GI50 (HCT-116 colon): 10.4 µM
- TGI (HCT-116 colon): 22.1 µM
- GI50 (HS 578T breast): 12.1 µM
- TGI (HS 578T breast): 26.2 µM
- GI50 (MALME-3M melanoma): 16.9 µM
- TGI (MALME-3M melanoma): 33 µM
- GI50 (SR leukemia): 11.5 µM
- TGI (SR leukemia): 32.2 µM
- GI50 (OVCAR-8 ovarian): 16.7 µM
- TGI (OVCAR-8 ovarian): 33.5 µM
- GI50 (786-0 renal): 13.4 µM
- TGI (786-0 renal): 26.2 µM
- GI50 (RXF 393 renal): 10.5 µM
- TGI (RXF 393 renal): 23.5 µM
- GI50 (UACC-62 melanoma): 14.2 µM
- TGI (UACC-62 melanoma): 30.4 µM
- GI50 (HOP-92 NSCLC): 6.62 µM
- TGI (HOP-92 NSCLC): 21.5 µM
- GI50 (SF-268 CNS): 14.6 µM
- TGI (SF-268 CNS): 27.7 µM
- GI50 (RPMI-8226 leukemia): 12.6 µM
- TGI (RPMI-8226 leukemia): 32 µM
- GI50 (SNB-75 CNS): 11 µM
- TGI (SNB-75 CNS): 23 µM
- GI50 (OVCAR-5 ovarian): 15.6 µM
- TGI (OVCAR-5 ovarian): 34.4 µM
- GI50 (MDA-MB-435): 11.6 µM
- TGI (MDA-MB-435): 25 µM
- GI50 (SK-MEL-2 melanoma): 17.4 µM
- TGI (SK-MEL-2 melanoma): 33.9 µM
- GI50 (HCC-2998 colon): 12.4 µM
- TGI (HCC-2998 colon): 25.4 µM
- GI50 (K-562 leukemia): 10.9 µM
- TGI (K-562 leukemia): 35.7 µM
- GI50 (SNB-19 CNS): 16.4 µM
- TGI (SNB-19 CNS): 34 µM
- GI50 (NCI-H522 lung): 16.4 µM
- TGI (NCI-H522 lung): 32.2 µM
- GI50 (UO-31 renal): 11.4 µM
- TGI (UO-31 renal): 24.8 µM
- GI50 (NCI-H226 lung): 17.2 µM
- TGI (NCI-H226 lung): 39.1 µM
- GI50 (HT29 colon): 9.02 µM
- TGI (HT29 colon): 21.3 µM
- GI50 (T-47D breast): 15.8 µM
- TGI (T-47D breast): 40.7 µM
- GI50 (OVCAR-3 ovarian): 13.7 µM
- TGI (OVCAR-3 ovarian): 28.1 µM
- GI50 (OVCAR-4 ovarian): 13.1 µM
- TGI (OVCAR-4 ovarian): 31.7 µM
- GI50 (HCT-15 colon): 12.1 µM
- TGI (HCT-15 colon): 26.7 µM
- GI50 (M14 melanoma): 13.7 µM
- TGI (M14 melanoma): 26.8 µM
- GI50 (IGROV1 ovarian): 13.6 µM
- TGI (IGROV1 ovarian): 29.1 µM
- GI50 (ACHN renal): 16.3 µM
- TGI (ACHN renal): 30.7 µM
- GI50 (MDA-MB-231 breast): 15.1 µM
- TGI (MDA-MB-231 breast): 32 µM
